What was measured:
[1] = In vivo metabolism of radioactive compounds, hamster plasma; conditions: après 24 heures, figure 2
Description: La mesure de la radioactivite des diverses fractions isolées du sang des hamsters traités permet de caractériser les metabolites, lesquels sont ainsi isolés et identifies par électrophorèse. Les metabolites acides HIAA et IAA sont séparés ensemble.
On a porté le temps en abscisses (exprimé en heures) et en ordonnées le pourcentage du compose caractérisé dans le plasma.

[2] = tested on: souris; assay: Tremor score in mice pretreated with a MAO inhibitor (Harmaline); format: in vivo; conditions: for Score total (tremblements): Harmaline pretreatment, 5 souris
Procedure: Les conditions expérimentales étaient les suivantes:
Chez des souris prétraitées par un inhibiteur de la MAO (Harmaline 25 mg/kg/ P.O.), I'injection de 5HTP (1 heure après l'IMAO) entraîne l'apparition de tremblements plus ou moins généralisés, accompagnés ou non d'hyperactivité motrice et qui sont dus a I'accumulation de sérotonine non dégradée au niveau des récepteurs post-synaptiques cérébraux. On peut établir pour chaque souris une cotation chiffrée suivant l'intensité des symptômes observes au cours du temps (cotation toutes les 5 min. entre la 5ème et la 45ème min. après I'injection de 5 HTP puis toutes les 15 min. jusqu'à la 75ème min.).
On additionne en une score total tous les chiffres obtenus aux différents temps sur des lots de 5 ou 10 souris.
Les actions du 5 HTP ont été comparées a celles du DF-5HTP.

Compound: O=C(O)C(Cc1c[nH]c2ccc(O)cc12)NCC1(O)OCC(O)C(O)C1O (stereo not shown) [DF-5HTP, N-1-desoxyfructo-5-hydroxytryptophane]
- taux du compose non transformé dans le plasma [1]: considerable
- Score total (tremblements) ([2]; 150 mg/kg S.C. (mole for mole 75 mg/kg of 5 HTP)): 0
- Score total (tremblements) ([2]; 500 mg/kg S.C.): 0
- activité dans l'essai des tremblements ([2]; souris pretreated with Harmaline, overall statement): inactif
